According to patent publication EP2812315B1, “PYRROLIC DERIVATIVES, PROCESSES FOR PREPARING THE SAME AND THEIR USES AS A DRUG” (Universite Joseph Fourier, priority 2012, dated 2013):
In brackets after ≈: the same amount, converted by molar mass. Read-outs that look alike come from different tables or passages of the source.

Experiments:
Type in all cases: cell-based
[1] = test system: Staphylococcus aureus CIP 103428; test: MIC determination, microdilution method (CLSI M07-A8); conditions: CIP103428, 5 x 10^5 CFU/mL, 18 hours incubation
Method: (§1) The microdilution method recommended by the Clinical and Laboratory Standard Institute [M07-A8, Vol.29, N°2] was used. The activity of pyrrolic compounds was tested against 29 bacterial strains belonging to 17 different species and 12 different genera (Staphylococcus, Streptococcus, Enterococcus, […], Bacillus, Haetttophilus, Escherichia, Klebsiella, Enterobacter, Serratia, Pseudomonas, and Acinetobacter). Bacterial inocula were prepared in Mueller Hinton broth (MH2, bioMérieux, Marcy L'Etoile, France), supplemented with 10% sheep blood for fastidious species (i.e., Streptococcus pneumoniae and Haemophilus influenzae). They were dispensed in 96 well microtiter plates (5 x 10^5 CFU/mL of final inoculum). Pyrrolic compounds were added to the wells as to obtain two-fold serial concentrations (0.25-64 mg/L). Plates were incubated at 37°C, in 5% CO2 enriched atmosphere for fastidious species only. MICs were read after 18 hours incubation of cultures, and corresponded to the minimum pyrrolic compound concentration that allowed complete visual growth inhibition of bacteria. Drug-free cultures served as growth controls. Cultures receiving gentamicine, ciprofloxacine or cefotaxime served as positive controls.

[2] = test system: Staphylococcus epidermidis CIP 103627; test: as above; conditions: CIP103627, 5 x 10^5 CFU/mL, 18 hours incubation
Method: as §1

[3] = test system: Staphylococcus epidermidis CIP 81.55; test: as above; conditions: CIP81, 5 x 10^5 CFU/mL, 18 hours incubation
Method: as §1

[4] = test system: Pseudomonas aeruginosa CIP 5933; test: as above
Method: as §1

[5] = test system: Staphylococcus aureus CIP 65.6; test: as above; conditions: CIP65, 5 x 10^5 CFU/mL, 18 hours incubation
Method: as §1

[6] = test system: Escherichia coli ATCC 25922; test: as above
Method: as §1

[7] = test system: Staphylococcus aureus ATCC 29213; test: as above
Method: as §1

[8] = test system: Serratia marcescens CIP 103551; test: as above
Method: as §1

[9] = test system: Klebsiella pneumoniae ATCC 35657; test: as above
Method: as §1

[10] = test system: Staphylococcus epidermidis ATCC 12228; test: as above
Method: as §1

[11] = test system: Staphylococcus aureus ATCC 6538; test: as above; conditions: ATCC6538, 5 x 10^5 CFU/mL, 18 hours incubation
Method: as §1

[12] = test system: Enterobacter cloacae ATCC13047; test: as above
Method: as §1

[13] = test system: Acinetobacter baumanii ATCC 19606; test: as above; conditions: Acinetobacter baumannii
Method: as §1

[14] = test system: Staphylococcus aureus ATCC 9144; test: as above; conditions: ATCC9144, 5 x 10^5 CFU/mL, 18 hours incubation
Method: as §1

[15] = test system: Staphylococcus aureus CIP 65.25 (MRSA); test: as above; conditions: 5 x 10^5 CFU/mL, 18 hours incubation
Method: as §1

[16] = test system: Staphylococcus aureus ATCC 106414 (VISA); test: as above; conditions: 5 x 10^5 CFU/mL, 18 hours incubation
Method: as §1

[17] = test system: Staphylococcus aureus ATCC 33592 (MRSA); test: as above; conditions: 5 x 10^5 CFU/mL, 18 hours incubation
Method: as §1

[18] = test system: Staphylococcus aureus ATCC 25923; test: as above
Method: as §1

[19] = test system: MRC5; test: In vitro cytotoxicity; conditions: MRC5 (human lung fibroblast); 10^-5 M in DMSO; triplicate; read-out: % of cellular growth inhibition
Method: (§2) In vitro cytotoxicity was assayed on three cell lines - KB (human mouth carcinoma), MCR5 (human lung fibroblast) and HCT116 (human colon tumor). Results are presented in table III as % of cellular growth inhibition in presence of 10^-5 M and 10^-6 M of the tested bis-pyrrolic derivatives in DMSO (triplicate).

[20] = test system: HCT116 (human colon tumor); test: In vitro cytotoxicity; conditions: HCT-116, 10^-5 M in DMSO, triplicate, read-out: % of cellular growth inhibition
Method: as §2

[21] = test system: KB (human mouth carcinoma); test: In vitro cytotoxicity; conditions: 10^-5 M in DMSO, triplicate, read-out: % of cellular growth inhibition
Method: as §2

[22] = test system: Enterococcus faecalis ATCC 29212; test: MIC determination, microdilution method (CLSI M07-A8); conditions: ATCC29212, 18 hours incubation
Method: as §1

[23] = test system: Haemophilus influenzae ATCC 49766; test: as above; conditions: ATCC49766, 10% sheep blood, 5% CO2, 18 hours incubation
Method: as §1

[24] = test system: Streptococcus pneumoniae ATCC 49619; test: as above; conditions: ATCC49619, 10% sheep blood, 5% CO2, 18 hours incubation
Method: as §1

[25] = test system: Streptococcus agalactiae (group B) ATCC 12400; test: as above; conditions: ATCC12400, 18 hours incubation
Method: as §1

[26] = test system: Staphylococcus aureus SA-1199B; test: as above; conditions: SA1199B, 18 h
Method: as §1

[27] = test system: Streptococcus mitis CIP 103335; test: as above; conditions: CIP103335, 18 hours incubation
Method: as §1

[28] = test system: Listeria innocua CIP 80.11; test: as above; conditions: CIP80, 18 hours incubation
Method: as §1

[29] = test system: Streptococcus pyogenes (group A) CIP 104226; test: as above; conditions: CIP104226, 18 hours incubation
Method: as §1

[30] = test system: Streptococcus pneumoniae ATCC 6303; test: as above; conditions: ATCC6303, 10% sheep blood, 5% CO2, 18 hours incubation
Method: as §1

[31] = test system: Enterococcus faecium CIP 54.32; test: as above; conditions: CIP54, 18 hours incubation
Method: as §1

[32] = test system: Bacillus subtilis CIP 5262; test: as above; conditions: CIP5262, 18 hours incubation
Method: as §1

[33] = CIP5933, Pseudomonas aeruginosa CIP 5933, 18 hours incubation, read-out: MIC
[34] = ATCC25922, Escherichia coli ATCC 25922, 18 hours incubation, read-out: MIC
[35] = ATCC29213, Staphylococcus aureus ATCC 29213, 5 x 10^5 CFU/mL, 18 hours incubation, read-out: MIC
[36] = CIP103551, Serratia marcescens CIP 103551, 18 hours incubation, read-out: MIC
[37] = ATCC35657, Klebsiella pneumoniae ATCC 35657, 18 hours incubation, read-out: MIC
[38] = ATCC12228, Staphylococcus epidermidis ATCC 12228, 5 x 10^5 CFU/mL, 18 hours incubation, read-out: MIC
[39] = Enterobacter cloacae ATCC13047, 18 hours incubation, read-out: MIC
[40] = ATCC19606, Acinetobacter baumanii ATCC 19606, 18 hours incubation, read-out: MIC
[41] = ATCC25923, Staphylococcus aureus ATCC 25923, 5 x 10^5 CFU/mL, 18 hours incubation, read-out: MIC

MIC [4, 33] [µg/mL]	MIC [6, 34] [µg/mL]	MIC [7, 35] [µg/mL]	MIC [8, 36] [µg/mL]	MIC [9, 37] [µg/mL]	MIC [10, 38] [µg/mL]	MIC [12, 39] [µg/mL]	MIC [13, 40] [µg/mL]	MIC [18, 41] [µg/mL]	SMILES	MIC [1] [µg/mL]	MIC [2] [µg/mL]	MIC [3] [µg/mL]	MIC [5] [µg/mL]	MIC [11] [µg/mL]	MIC [14] [µg/mL]	MIC [15] [µg/mL]	MIC [16] [µg/mL]	inhibition at 10 µM [19] [%]	inhibition at 10 µM [20] [%]	inhibition at 10 µM [21] [%]	further results
> 128	> 128	8 (≈ 19.6 µM)	> 128	> 128	> 128	> 128	> 128	> 32	CC(=O)c1c(C)[nH]c(C(c2ccc([N+](=O)[O-])cc2)c2[nH]c(C)c(C(C)=O)c2C)c1C [3d]	> 32	> 128	> 128	16 (≈ 39.3 µM)	> 32	> 32	8 (≈ 19.6 µM)	8 (≈ 19.6 µM)	0	0	0	MIC [17]: > 32 µg/mL
									CC(=O)c1c(C)[nH]c(C(c2ccccc2O)c2[nH]c(C)c(C(C)=O)c2C)c1C [3m]									1 ± 17	0	6 ± 10	MIC ([4]; Pseudomonas aeruginosa, CIP5933, 18 h): > 32 µg/mL; MIC ([6]; Escherichia coli, ATCC25922, 18 h): > 32 µg/mL; MIC ([7]; Staphylococcus aureus, ATCC29213, 18 h): 4 µg/mL (≈ 10.6 µM); MIC ([8]; Serratia marcescens, CIP103551, 18 h): > 32 µg/mL; MIC ([9]; Klebsiella pneumoniae, ATCC35657, 18 h): > 32 µg/mL; MIC ([10]; Staphylococcus epidermidis, ATCC12228, 18 h): > 128 µg/mL; MIC ([12]; Enterobacter cloacae, ATCC13047, 18 h): > 32 µg/mL; MIC ([13]; ATCC19606, 18 h): > 32 µg/mL; MIC ([18]; Staphylococcus aureus, ATCC25923, 18 h): 8 µg/mL (≈ 21.1 µM)
> 32	> 32	8 (≈ 21.7 µM)	> 32	> 32	> 128	> 32	> 32	4 (≈ 10.9 µM)	CC(=O)c1c(C)[nH]c(C(c2cccs2)c2[nH]c(C)c(C(C)=O)c2C)c1C [3l]									6 ± 3	11 ± 7	9 ± 5	
> 32	> 32	4 (≈ 8.19 µM)	> 32	> 32	> 128	> 32	> 32	8 (≈ 16.4 µM)	CC(=O)c1c(C)[nH]c(C(c2ccccc2I)c2[nH]c(C)c(C(C)=O)c2C)c1C [3k]									3 ± 5	0	20 ± 8	

SMILES	MIC [4, 33] [µg/mL]	MIC [6, 34] [µg/mL]	MIC [7, 35] [µg/mL]	MIC [8, 36] [µg/mL]	MIC [9, 37] [µg/mL]	MIC [10, 38] [µg/mL]	MIC [12, 39] [µg/mL]	MIC [13, 40] [µg/mL]	MIC [18, 41] [µg/mL]	MIC [1] [µg/mL]	MIC [2] [µg/mL]	MIC [3] [µg/mL]	MIC [5] [µg/mL]	MIC [11] [µg/mL]	MIC [14] [µg/mL]	MIC [15] [µg/mL]	MIC [16] [µg/mL]	inhibition at 10 µM [19] [%]	inhibition at 10 µM [20] [%]	inhibition at 10 µM [21] [%]	further results
CC(=O)c1c(C)[nH]c(C(c2ccccc2)c2[nH]c(C)c(C(C)=O)c2C)c1C [3b]	> 128	> 128	4 (≈ 11 µM)	> 128	> 128	> 128	> 128	> 128	4 (≈ 11 µM)	4 (≈ 11 µM)	> 128	> 128	4 (≈ 11 µM)	4 (≈ 11 µM)	8 (≈ 22.1 µM)	8 (≈ 22.1 µM)	4 (≈ 11 µM)		43	32	MIC [22]: > 128 µg/mL; MIC [23]: > 128 µg/mL; MIC [24]: > 128 µg/mL; MIC [25]: > 128 µg/mL; MIC [26]: 8 µg/mL (≈ 22.1 µM); MIC [27]: > 128 µg/mL; MIC [28]: > 128 µg/mL; MIC [29]: > 128 µg/mL; MIC [30]: > 128 µg/mL; MIC [17]: 8 µg/mL (≈ 22.1 µM); MIC [31]: > 128 µg/mL; MIC [32]: > 128 µg/mL
CCC(c1[nH]c(C)c(C(C)=O)c1C)c1[nH]c(C)c(C(C)=O)c1C [3a]	> 128	> 128	32 (≈ 102 µM)	> 128	> 128	> 128	> 128	> 128	32 (≈ 102 µM)	32 (≈ 102 µM)	> 128	> 128	32 (≈ 102 µM)	16 (≈ 50.9 µM)	> 128	16 (≈ 50.9 µM)	32 (≈ 102 µM)		41	30	MIC [22]: > 128 µg/mL; MIC [23]: > 128 µg/mL; MIC [24]: > 128 µg/mL; MIC [25]: > 128 µg/mL; MIC [26]: 32 µg/mL (≈ 102 µM); MIC [27]: > 128 µg/mL; MIC [28]: > 128 µg/mL; MIC [29]: > 128 µg/mL; MIC [30]: > 128 µg/mL; MIC [17]: 16 µg/mL (≈ 50.9 µM); MIC [31]: > 128 µg/mL; MIC [32]: > 128 µg/mL
